Active and inactive are the calls of the source.
Legend:
[1] = system: BJ; assay: cytotoxicity toward BJ-TERT fibroblasts, dose response, cell-based, RAS-independent, luminescence (AID 1933); format: functional; settings: Homo sapiens
[2] = target: Type-1 angiotensin II receptor (Homo sapiens, UniProt P30556); assay: AT1 receptor antagonists, dose response, selectivity assay for APJ receptor antagonist project, cell-based, uHTS hits (AID 463214); format: functional;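 further: antagonist potency against angiotensin II stimulated AT1 response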
Chain of Type-1 angiotensin II receptor (P30556 whole entry): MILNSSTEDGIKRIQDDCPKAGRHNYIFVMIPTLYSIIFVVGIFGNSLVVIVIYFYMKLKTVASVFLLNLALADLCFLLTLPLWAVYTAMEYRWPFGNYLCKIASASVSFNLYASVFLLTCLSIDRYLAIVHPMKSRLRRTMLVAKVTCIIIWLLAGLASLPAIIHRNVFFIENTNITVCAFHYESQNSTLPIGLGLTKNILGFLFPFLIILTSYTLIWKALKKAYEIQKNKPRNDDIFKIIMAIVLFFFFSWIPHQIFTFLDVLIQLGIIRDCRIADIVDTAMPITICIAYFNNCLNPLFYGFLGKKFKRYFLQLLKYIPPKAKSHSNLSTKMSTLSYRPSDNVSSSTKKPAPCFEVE

[3] = target: T1, Sphingosine 1-phosphate receptor 4 (Homo sapiens, UniProt O95977); assay: Fluorescence dose response cell-based high throughput screening assay for antagonists of the Sphingosine 1-Phosphate Receptor 4 (S1P4). [Related pubchem assays: 1524 (Confirmation in triplicates.), 1510 (Primary screen.)]; format: functional
T1 sequence (O95977 whole entry): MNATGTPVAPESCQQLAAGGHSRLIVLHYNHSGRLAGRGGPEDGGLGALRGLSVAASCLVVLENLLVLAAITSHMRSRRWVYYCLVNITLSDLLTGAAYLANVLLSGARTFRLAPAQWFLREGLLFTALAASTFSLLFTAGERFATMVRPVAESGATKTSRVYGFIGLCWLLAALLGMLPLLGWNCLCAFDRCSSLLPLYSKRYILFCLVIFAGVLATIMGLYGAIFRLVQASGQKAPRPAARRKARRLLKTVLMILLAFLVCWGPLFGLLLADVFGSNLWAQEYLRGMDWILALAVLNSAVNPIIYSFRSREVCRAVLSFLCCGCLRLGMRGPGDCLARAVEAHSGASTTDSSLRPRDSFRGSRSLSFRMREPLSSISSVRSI

[4] = target: T2, Heat shock factor protein 1 (Mus musculus, UniProt P38532); assay: inhibition of MG132-induced HSE-luciferase signal, confirmation, cell-based, NIH3T3, luminescence, dose retest (AID 2382); format: functional;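 further: NIH3T3 fibroblasts with HSF1-driven luciferase reporter stressed by proteasome inhibitor MG132; luminescence from HSF1-driven luciferase expression after 8 hours of MG132 stress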
T2 sequence (P38532 whole entry): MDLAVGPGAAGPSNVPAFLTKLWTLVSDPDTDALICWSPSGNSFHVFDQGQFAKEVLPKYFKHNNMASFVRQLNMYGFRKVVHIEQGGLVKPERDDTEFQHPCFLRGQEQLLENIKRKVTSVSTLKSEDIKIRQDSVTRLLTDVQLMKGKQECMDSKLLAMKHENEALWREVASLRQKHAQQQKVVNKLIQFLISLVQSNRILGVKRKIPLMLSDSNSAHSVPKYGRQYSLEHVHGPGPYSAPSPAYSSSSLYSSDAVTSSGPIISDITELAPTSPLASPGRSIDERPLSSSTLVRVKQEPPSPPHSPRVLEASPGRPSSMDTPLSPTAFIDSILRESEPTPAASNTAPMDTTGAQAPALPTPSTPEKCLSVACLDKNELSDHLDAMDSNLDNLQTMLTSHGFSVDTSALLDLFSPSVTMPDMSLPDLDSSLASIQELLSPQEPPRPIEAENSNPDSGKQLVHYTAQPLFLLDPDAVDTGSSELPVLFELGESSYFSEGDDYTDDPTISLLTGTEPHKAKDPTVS

[5] = system: CHO; assay: cytotoxicity in TLR9-MyD88 CHO cells, dose response, cytotoxicity control for TLR9-MyD88 binding inhibitor project, cell-based, luminescence (AID 588339); format: functional, hamster; settings: Cricetulus griseus;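 further: CHO cells stably coexpressing TLR9 and MyD88 fusions from primary screen; compound exposure lasted 48 hours before viability readout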
[6] = system: BJ; assay: cytotoxicity toward BJ-TERT-LT-ST fibroblasts, dose response, cell-based, RAS-independent, luminescence (AID 1935); format: functional; settings: Homo sapiens;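 further: BJ fibroblasts immortalized with TERT plus LT and ST oncogenes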
[7] = system: BJ; assay: cells; format: functional, cell-based; settings: Homo sapiens
[8] = target: Sphingosine 1-phosphate receptor 1 (Homo sapiens, UniProt P21453); format: functional;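 further: Tango beta-arrestin reporter U2OS cells stimulated with S1P near its EC80; inhibitor potency meaning antagonism of receptor activation by the natural agonist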
Chain of Sphingosine 1-phosphate receptor 1 (P21453 whole entry): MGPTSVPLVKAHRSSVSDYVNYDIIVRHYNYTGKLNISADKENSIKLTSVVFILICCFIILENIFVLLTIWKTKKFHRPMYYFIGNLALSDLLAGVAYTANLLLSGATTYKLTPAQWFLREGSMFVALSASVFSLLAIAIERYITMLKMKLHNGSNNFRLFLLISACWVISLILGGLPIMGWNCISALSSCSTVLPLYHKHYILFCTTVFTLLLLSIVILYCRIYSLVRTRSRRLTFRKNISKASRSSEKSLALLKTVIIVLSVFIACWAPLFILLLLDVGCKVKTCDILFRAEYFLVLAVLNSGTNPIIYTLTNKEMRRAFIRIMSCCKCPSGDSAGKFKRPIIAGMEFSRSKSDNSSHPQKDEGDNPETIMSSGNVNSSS

[9] = target: T1, Sphingosine 1-phosphate receptor 4; assay: Late stage fluorescence dose response cell-based screening assay for antagonists of the Sphingosine 1-Phosphate Receptor 4 (S1P4). [Related pubchem assays: 1524 (Confirmation screen (S1P4 antagonists).), 1510 (Primary screen (S1P4 antagonists).), 1853 (Summary AID (S1P4 antagonists).), 1692 (Dose response screen (S1P4 antagonists).)]; format: functional
[10] = target: Beta-galactosidase (Escherichia coli, UniProt Q8VNN2); assay: PubChem AID 485352; format: functional
Chain of Beta-galactosidase (Q8VNN2 whole entry): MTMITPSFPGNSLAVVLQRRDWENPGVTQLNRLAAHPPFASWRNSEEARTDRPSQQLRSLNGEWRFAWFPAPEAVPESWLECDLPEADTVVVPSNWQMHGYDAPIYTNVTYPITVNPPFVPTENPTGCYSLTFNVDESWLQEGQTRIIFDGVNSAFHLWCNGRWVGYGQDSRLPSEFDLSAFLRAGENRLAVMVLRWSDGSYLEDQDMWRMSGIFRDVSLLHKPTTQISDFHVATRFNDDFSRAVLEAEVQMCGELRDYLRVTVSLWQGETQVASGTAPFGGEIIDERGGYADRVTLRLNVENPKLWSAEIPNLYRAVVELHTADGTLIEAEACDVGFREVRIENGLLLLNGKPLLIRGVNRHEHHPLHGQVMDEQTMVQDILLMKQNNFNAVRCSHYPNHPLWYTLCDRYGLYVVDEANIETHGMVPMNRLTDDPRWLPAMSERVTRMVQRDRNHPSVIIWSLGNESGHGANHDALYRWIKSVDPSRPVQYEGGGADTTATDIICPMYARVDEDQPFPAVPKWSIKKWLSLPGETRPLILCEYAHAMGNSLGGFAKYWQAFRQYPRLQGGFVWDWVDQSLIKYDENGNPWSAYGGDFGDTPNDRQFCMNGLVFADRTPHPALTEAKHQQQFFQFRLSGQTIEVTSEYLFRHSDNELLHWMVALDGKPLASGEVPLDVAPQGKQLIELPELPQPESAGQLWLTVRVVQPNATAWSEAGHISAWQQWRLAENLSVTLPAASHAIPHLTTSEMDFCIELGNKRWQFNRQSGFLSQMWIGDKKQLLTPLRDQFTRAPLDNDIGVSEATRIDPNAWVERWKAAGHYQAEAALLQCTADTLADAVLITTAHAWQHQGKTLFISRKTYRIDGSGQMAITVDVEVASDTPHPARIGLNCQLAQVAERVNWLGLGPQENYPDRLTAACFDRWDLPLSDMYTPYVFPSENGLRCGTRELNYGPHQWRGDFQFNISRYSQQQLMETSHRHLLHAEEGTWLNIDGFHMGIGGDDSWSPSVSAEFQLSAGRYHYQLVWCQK

[11] = target: Heat shock protein HSP 90-alpha (Homo sapiens, UniProt P07900); format: functional, organism-based
[12] = system: INS1; assay: beta cell apoptosis inhibitors, cytokine rescue, dose response, luminescence, retest (AID 449756); format: functional, cell-based; settings: Rattus norvegicus;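 further: cell death triggered by IL-1 beta plus TNF-alpha plus IFN-gamma mixture; protective hits raise ATP signal compared with cytokine alone wells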
[13] = cytotoxicity toward DRD oncogenic fibroblasts, dose response, cell-based, non-viral oncogenic, luminescence (AID 1934); format: functional; settings: Homo sapiens
[14] = target: Beta Lactamase (Pseudomonas aeruginosa, UniProt Q932Y6); assay: beta-lactamase reporter inhibitor potency, dose response, artefact control for TLR9-MyD88 binding inhibitor project, BLA reporter cells, FRET fluorescence (AID 588341); format: cell-based;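 further: cell based assay in CHO-K1 cells stably expressing beta-lactamase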
Chain of Beta Lactamase (Q932Y6 whole entry): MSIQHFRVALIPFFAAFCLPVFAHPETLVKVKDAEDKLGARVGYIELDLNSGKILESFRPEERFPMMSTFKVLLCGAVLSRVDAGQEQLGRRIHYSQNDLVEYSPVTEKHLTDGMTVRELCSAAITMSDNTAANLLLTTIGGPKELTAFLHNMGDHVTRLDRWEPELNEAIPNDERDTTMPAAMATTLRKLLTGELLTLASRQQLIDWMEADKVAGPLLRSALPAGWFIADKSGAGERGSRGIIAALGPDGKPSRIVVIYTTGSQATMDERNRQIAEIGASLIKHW

[15] = cells; format: functional, cell-based; settings: HEK-CNG
[16] = target: T3, Galanin receptor type 3 (Homo sapiens, UniProt O60755); assay: Fluorescence-based cell-based primary high throughput dose response assay to identify antagonists of the Galanin Receptor 3 (GalR3).; format: functional
T3 sequence (O60755 whole entry): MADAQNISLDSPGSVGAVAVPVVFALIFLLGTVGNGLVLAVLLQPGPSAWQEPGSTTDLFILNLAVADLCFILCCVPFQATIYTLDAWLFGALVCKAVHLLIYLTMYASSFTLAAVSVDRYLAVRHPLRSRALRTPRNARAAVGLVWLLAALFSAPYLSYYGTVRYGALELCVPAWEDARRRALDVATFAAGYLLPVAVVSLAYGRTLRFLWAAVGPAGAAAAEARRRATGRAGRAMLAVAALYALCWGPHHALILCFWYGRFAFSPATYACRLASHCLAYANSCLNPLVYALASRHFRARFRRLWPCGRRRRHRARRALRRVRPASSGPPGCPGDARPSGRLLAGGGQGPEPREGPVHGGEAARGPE

[17] = inhibitors of clade B AD8 Env fusion, dose response, cell-based, cherry-pick (AID 652062); format: functional;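 further: luciferase signal from cell-cell fusion driven by HIV-1 clade B AD8 Env; potency is for inhibitors of fusion seen as a drop in luminescence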
[18] = control 3'UTR Renilla luciferase suppression, dose response, counter-screen for Shn3 inhibitor project, cell-based, Clone20-Shn3RL, cherry-picked (AID 624133); format: functional
[19] = Shn3 3'UTR reporter inhibitors, dose response, cell-based, Clone20 osteoblasts, firefly luciferase, cherry-picked (AID 624132); format: functional;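 further: firefly luciferase luminescence from reporter carrying the Shn3 3'UTR in osteoblasts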
[20] = ZM109 Env clade C HIV-1 fusion inhibitors, dose response, HeLa effector, CEM target cells, luciferase, cherry-pick (AID 652058); format: functional, cell-based
[21] = system: Jurkat; assay: antigen receptor-induced NF-kB inhibitors, dose response, Jurkat, luciferase reporter, luminescence, B- and T-cell (AID 489004); format: functional, cell-based; settings: Homo sapiens;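 further: NF-kB luciferase reporter Jurkat cells stimulated with PMA plus ionomycin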
[22] = HepG2 cell cytotoxicity, dose response, cytotoxicity control for Shn3 inhibitor project, CellTiter-Glo, cherry-picked (AID 624134); format: functional, cell-based
[23] = cytotoxicity in HEK-293T NF-kB-Luc cells, dose response, cytotoxicity control for B/T-cell NF-kB inhibitor project, cell-based, uHTS hits (AID 489019); format: functional;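 further: IC50 reflects cytotoxicity as loss of cell viability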

O=[N+]([O-])c1cnc(Sc2ccncn2)s1
active: EC50 [1] 2.21 µM | IC50 [2] 5.67 µM | IC50 [3] 0.86 µM | EC50 [4] 4.12 µM | IC50 [5] 1.29 µM | EC50 [7] 8.38 µM | AC50 [11] 1.49 µM | AC50 [12] 4.35 µM | EC50 [13] 5.64 µM
inactive: EC50 [10] > 40 µM | IC50 [14] > 49.7 µM
1.72 µM (not active): IC50 [9]
inconclusive: EC50 [6] 4.97 µM
15 µM (not active): IC50 [8]

COc1cc(CSc2nnnn2-c2ccc(C)cc2)cc(OC)c1OC
inactive: EC50 [15] > 29.9 µM | IC50 [21] > 80 µM | IC50 [23] > 80 µM
active: IC50 [16] 1.22 µM | AC50 [17] 4.54 µM | AC50 [18] 2.16 µM | AC50 [19] 1.02 µM | AC50 [20] 4.94 µM | AC50 [12] 2.98 µM | AC50 [22] 2.51 µM

Reference: ChEMBL document CHEMBL1201862, “PubChem BioAssay data set” (2004)
